Measurements taken from patent publication US11767314B2, “Bioenergetic nicotinic acid glycerol esters, compositions and methods of using same” (Conopco, Inc., priority 2018, dated 2023).
Entries after “also recorded” stand apart in the source; their conditions may differ.

System: Human dermal fibroblasts F5140616B1
Test: Effect of NAEs on AMP/ATP Ratio in Fibroblast Cells (metabolites by LC/MS)
Type: cell-based
Design: AMP/ATP Ratio: scale not given here
Settings: for AMP/ATP Ratio / Increase Over Vehicle (AMP/ATP ratio): 500 uM, fibroblasts treated every other day for 6 days; for AMP/ATP Ratio: vehicle (ethanol) 367; for Increase Over Vehicle (AMP/ATP ratio): vs ethanol vehicle; for AMP/ATP ratio, result in words: fibroblast cells, 500 uM where stated
Description: The experiments in this Example 2 were conducted in the following manner.
Method for Treatment of Fibroblasts with Bioenergetic Compounds
Human dermal fibroblasts F5140616B1 (MatTek Corporation, Ashland, Mass.) were derived from a donor and cultured in DMEM media (ThermoFisher Cat #31053-036) supplemented with FBS (Hyclone/Fisher Scientific Cat #SH30007103), glutamine (ThermoFisher Cat #35050-61) and sodium pyruvate (ThermoFisher Cat #11360-070). At the third passage, the cells were detached from the culture vessels using Trypsin/EDTA (T/E) solution (0.25 mg/mL) (Lonza Cat #CC-5012) and used for experimentation.
Cells were treated with the compounds every other day for a total of 6 days. Treatment involved removal of the spent media+compounds and replenishment with fresh media+compounds. At the end of the experiment, the cells were detached from the culture vessels using the standard procedure outlined above. The cells were centrifuged and then washed 1× with Dulbecco's PBS with no calcium or magnesium (ThermoFisher Cat #14190144) and then accurate cell counts were taken using a Scepter cell counter (EMD Millipore). The cells were then split equally into 2 Eppendorf tubes, and centrifuged. Excess PBS was then removed from the resulting cell pellets. The pellets were then immediately frozen on dry ice and sent to an external laboratory for analysis of metabolites by LC/MS.

Row | SMILES | AMP/ATP Ratio | Increase Over Vehicle (AMP/ATP ratio) [%] | AMP/ATP ratio, result in words
1 | CC(=O)O[C@@H]1[C@@H](CO)OC([n+]2cccc(C(N)=O)c2)[C@@H]1OC(C)=O.O=S(=O)([O-])C(F)(F)F (stereo partly drawn) [JR1, 3-carbamoyl-1-((3R,4R,5R)-3,4-diacetoxy-5-(hydroxymethyl)tetrahydrofuran-2-yl)pyridin-1-ium trifluoromethanesulfonate] | 756 | 106 | –
2 | CCCC(=O)O[C@@H]1[C@@H](CO)OC([n+]2cccc(C(N)=O)c2)[C@@H]1OC(=O)CCC.O=S(=O)([O-])C(F)(F)F (stereo partly drawn) [JR2, 1-((3R,4R,5R)-3,4-bis(butyryloxy)-5-(hydroxymethyl)tetrahydrofuran-2-yl)-3-carbamoylpyridin-1-ium trifluoromethanesulfonate] | 919 | 150 | –
3 | CC(=O)O[C@@H]1[C@@H](CO)OC(N2C=CCC(C(N)=O)=C2)[C@@H]1OC(C)=O (stereo partly drawn) [JR3, (3R,4R,5R)-2-(3-carbamoylpyridin-1(4H)-yl)-5-(hydroxymethyl) tetrahydrofuran-3,4-diyl diacetate] | 1231 | 235 | –
4 | NC(=O)c1cccnc1 [Nicotinamide, reference compound] | 529 | 44 | somewhat elevated levels of AMP/ATP ratio over control vehicle
5 | CC1(C)OCC(COC(=O)c2cccnc2)O1 (stereo not shown) [VC1, (2,2-dimethyl-1,3-dioxolan-4-yl)methyl nicotinate] | 1010 | 175 | increased AMP/ATP ratio in testing; also recorded: notably increase the AMP/ATP ratio; also recorded: significantly elevated levels of AMP/ATP ratio over both, control vehicle and nicotinamide; also recorded: increase in the levels of AMP/ATP ratio; also recorded: demonstrably increased AMP/ATP ratio
6 | O=C(OCC(O)CO)c1cccnc1 (stereo not shown) [VC2, 2,3-dihydroxypropyl nicotinate] | – | – | increased AMP/ATP ratio in testing; also recorded: notably increase the AMP/ATP ratio; also recorded: increase in the levels of AMP/ATP ratio; also recorded: demonstrably increased AMP/ATP ratio
7 | CC1(C)OCC(OC(=O)c2cccnc2)CO1 [VC4, 2,2-dimethyl-1,3-dioxan-5-yl nicotinate] | 941 | 156 | increased AMP/ATP ratio in testing; also recorded: notably increase the AMP/ATP ratio; also recorded: significantly elevated levels of AMP/ATP ratio over both, control vehicle and nicotinamide; also recorded: demonstrably increased AMP/ATP ratio
